The test system of this test is AAT-induced hearing loss (six hours of 4 kHz octave band noise at 105 dB SPL). The test can be described thus: Acute acoustic trauma (AAT) in chinchillas, hearing levels by auditory brainstem response (ABR). The format is in vivo, chinchilla. To be noted: every tested frequency. As to the method: With reference first to Tables 1-A, 1-B and 1-C, tests were conducted using six chinchillas for each experimental group and the control group. In these tests, the animals were exposed to AAT generated by six hours of noise exposure at 4 kHz octave band noise at 105 dB SPL. Treatments using 4-OHPBN (dosages of 10, 20, 50, and 75 mg/kg), ALCAR (dosages of 0, 20, 30, and 50 mg/kg), and NAC (50, 100, and 200 mg/kg) were given four hours after the AAT by intraperitoneal injection. Hearing levels were determined by auditory brainstem response (ABR) prior to the AAT event (baseline) and at 21 days post injection.
Table 3 depicts the results provided by treatment with a preferred embodiment of the current invention. In this embodiment, the AAT treatment therapy utilized a combination of 4-OHPBN (50 mg/kg) with NAC (100 mg/kg). Treatment consisted of intraperitoneal injection of the combined 4-OHPBN and NAC four hours after the AAT event. In this instance, six chinchillas were used for each test group. The animals were exposed to an AAT event produced by six hours of noise exposure at 4 kHz octave band noise at 105 dB SPL. Hearing levels reported in Table 3 were determined using the ABR method prior to the AAT event and 21 days post AAT. […] As indicated by the * each result was determined to be statistically significant and resulting from the treatment with the combination of 4-OHPBN and NAC. Statistical analysis was carried out using a one way ANOVA procedure and Post hoc test. While the above tests were conducted at the specified dosages, effective results should be realized at dosages between about 5 mg/kg and about 300 mg/kg for NAC and about 5 mg/kg and about 150 mg/kg for 4-OHPBN when NAC and 4-OHPBN are used in combination.
Table 4 depicts the results provided by treatment with another preferred embodiment of the current invention. The test for this embodiment utilized three test groups consisting of six chinchillas each. The chinchillas were exposed to an AAT event generated by a 105 dB narrow-band noise centered at 4 kHz for 6 hours. In this embodiment, the AAT treatment therapy utilized a combination of 4-OHPBN (20 mg/kg) with NAC (50 mg/kg) and ALCAR (20 mg/kg). Treatment consisted of intraperitoneal injection of the combined 4-OHPBN, NAC and ALCAR beginning four hours after noise exposure with injections repeated twice daily for the next two days. The control group was injected with carrier solution. Hearing levels reported in Table 4 were determined using the ABR method prior to the AAT event, immediately after the AAT event and 21 days after the AAT event.
Mean ABR threshold shifts were obtained and statistically analyzed using a two-way ANOVA procedure.

On to `CC(=O)O[C@H](CC(=O)[O-])C[N+](C)(C)C` [ALCAR, Acetyl-L-Carnitine], for which the “p (two way ANOVA and Post hoc test) vs control, ABR hearing level” value by setting is: (ALCAR 30 mg/kg i.p. four hours after AAT) less than 0.05; (ALCAR 50 mg/kg i.p. four hours after AAT) less than 0.05.

Turning to `CC(=O)N[C@@H](CS)C(=O)O` [NAC, N-acetylcysteine], the “p (two way ANOVA and Post hoc test) vs control, ABR hearing level” value is reported as less than 0.05 (NAC 100 mg/kg i.p. four hours after AAT) and less than 0.05 (NAC 200 mg/kg i.p. four hours after AAT).

These data come from patent US8420595B2, “Methods for treating acute acoustic trauma” (Oklahoma Medical Research Foundation, priority 2006, dated 2013).
